From ChEMBL document CHEMBL1201862, “PubChem BioAssay data set” (2004)
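Where inhibition never reached the appropriate level, the endpoint shown equals the highest concentration tested. Otherwise, values were interpolated linearly from a five-concentration, 48-hour dose response in 96-well plates. GI50 marks 50% less growth.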 Calls of active or inactive are those of the source. Cut-off read from the data, not from the text of the source: active = GI50 up to about 1.1 µM and inactive = higher.

What was measured:
Assay in all cases: NCI tumour cell line growth inhibition, 48 h
DU-145 = system: DU-145
OVCAR-8 = system: OVCAR-8
SR = system: SR
OVCAR-3 = system: OVCAR-3
SF-268 = system: SF-268
A498 = system: A498
ACHN = system: ACHN
MDA-MB-231 = system: MDA-MB-231
KM12 = system: KM12
OVCAR-5 = system: OVCAR-5
K562 = system: K562
LOX IMVI = system: LOX IMVI
SK-OV-3 = system: SK-OV-3
NCI-H23 = system: NCI-H23
UO-31 = system: UO-31
786-0 = system: 786-0
OVCAR-4 = system: OVCAR-4
NCI/ADR-RES = system: NCI/ADR-RES
SK-MEL-5 = system: SK-MEL-5
PC-3 = system: PC-3

Measured: GI50

N=C1N=C(N)c2cc3c(cc21)SCCSCCCSCCS3
inactive: DU-145 31.6 µM | OVCAR-8 18 µM | SR 11.1 µM | OVCAR-3 11.8 µM | SF-268 12.8 µM | A498 > 44.7 µM | ACHN 12.9 µM | MDA-MB-231 16 µM | KM12 11.9 µM | OVCAR-5 18.4 µM | K562 4.71 µM | LOX IMVI 4.38 µM | SK-OV-3 18.5 µM | NCI-H23 11.3 µM | UO-31 49.9 µM | 786-0 14.2 µM | OVCAR-4 19.8 µM | NCI/ADR-RES 58.1 µM | SK-MEL-5 16 µM | PC-3 15.1 µM

Cn1nc2ccc([N+](=O)[O-])cc2[n+]1[O-]
inactive: DU-145 > 100 µM | OVCAR-8 > 100 µM | SR > 100 µM | OVCAR-3 > 100 µM | A498 87.9 µM | ACHN > 100 µM | MDA-MB-231 > 100 µM | KM12 > 100 µM | OVCAR-5 > 100 µM | K562 > 100 µM | SK-OV-3 > 100 µM | NCI-H23 > 100 µM | UO-31 > 100 µM | 786-0 > 100 µM | OVCAR-4 > 100 µM | NCI/ADR-RES > 100 µM | SK-MEL-5 > 100 µM | PC-3 > 100 µM

Ic1ccc2c(c1)N(c1ccccc1)c1cc([N-]c3ccc4nc5ccc(I)cc5[n+](-c5ccccc5)c4c3)ccc1N2
inactive: DU-145 > 100 µM | OVCAR-8 > 100 µM | SR 32.6 µM | OVCAR-3 2.92 µM | SF-268 > 100 µM | A498 > 100 µM | ACHN > 100 µM | MDA-MB-231 23.7 µM | KM12 44.2 µM | OVCAR-5 > 100 µM | K562 35 µM | SK-OV-3 > 100 µM | NCI-H23 41.3 µM | UO-31 > 100 µM | 786-0 > 100 µM | OVCAR-4 > 100 µM | NCI/ADR-RES > 100 µM | SK-MEL-5 33.4 µM | PC-3 55.7 µM

Cc1nc2cc(Cl)c(N)cc2[nH]1
inactive: DU-145 > 100 µM | OVCAR-8 > 100 µM | SR > 100 µM | OVCAR-3 > 100 µM | SF-268 > 100 µM | A498 > 100 µM | ACHN > 100 µM | MDA-MB-231 > 100 µM | KM12 > 100 µM | OVCAR-5 > 100 µM | K562 > 100 µM | LOX IMVI > 100 µM | SK-OV-3 > 100 µM | NCI-H23 > 100 µM | UO-31 > 100 µM | 786-0 > 100 µM | NCI/ADR-RES > 100 µM | SK-MEL-5 > 100 µM | PC-3 > 100 µM

Clc1ccccc1-c1nc(-c2ccncc2)no1 [PIFEXOLE]
inactive: DU-145 87.9 µM | OVCAR-8 90.6 µM | SR 18.5 µM | OVCAR-3 44.9 µM | SF-268 59.6 µM | A498 37.6 µM | ACHN 88.1 µM | MDA-MB-231 94.4 µM | KM12 > 100 µM | OVCAR-5 > 100 µM | K562 26.6 µM | SK-OV-3 > 100 µM | NCI-H23 49.4 µM | UO-31 47.4 µM | 786-0 > 100 µM | OVCAR-4 59.8 µM | NCI/ADR-RES 30.9 µM | SK-MEL-5 22.9 µM | PC-3 78 µM

CC(=O)NC(CSC1=C2NC(=O)\C=C/C=C\C=C/C(C)C(O)CC(=O)/C(C)=C\CC(O)/C=C\C(C)C(O)C(C)C=C(C)C(=O)c3c(O)c(C)cc(c3C1=O)C2=O)C(=O)O (configuration not stated)
inactive: DU-145 61.8 µM | OVCAR-8 > 100 µM | SR 33.5 µM | OVCAR-3 96.6 µM | A498 > 100 µM | ACHN 66.4 µM | MDA-MB-231 24.6 µM | KM12 33.7 µM | OVCAR-5 > 100 µM | K562 39.1 µM | LOX IMVI 69.2 µM | SK-OV-3 > 100 µM | NCI-H23 > 100 µM | UO-31 > 100 µM | 786-0 89.7 µM | OVCAR-4 > 100 µM | NCI/ADR-RES > 100 µM | SK-MEL-5 39.3 µM | PC-3 > 100 µM

CCOC(=O)/C(C)=C\[C@@]1(C)O[C@@H](C)[C@@](C)(OC(C)=O)[C@@H]1OC(C)=O
inactive: DU-145 37.1 µM | OVCAR-8 67.5 µM | SR 58.3 µM | OVCAR-3 33.4 µM | SF-268 39.3 µM | A498 48 µM | ACHN 41 µM | MDA-MB-231 57.5 µM | KM12 45.2 µM | OVCAR-5 > 100 µM | K562 38.6 µM | LOX IMVI 71 µM | SK-OV-3 75.7 µM | NCI-H23 21.5 µM | 786-0 63.5 µM | OVCAR-4 33.4 µM | NCI/ADR-RES 30.2 µM | SK-MEL-5 33.8 µM | PC-3 36.6 µM

O=C(NNC(=O)c1ccccc1O)c1ccco1
inactive: DU-145 > 100 µM | OVCAR-8 80.7 µM | SR 66.7 µM | OVCAR-3 57.4 µM | SF-268 > 100 µM | A498 > 100 µM | MDA-MB-231 60.5 µM | KM12 > 100 µM | OVCAR-5 > 100 µM | K562 > 100 µM | LOX IMVI > 100 µM | SK-OV-3 > 100 µM | UO-31 > 100 µM | 786-0 > 100 µM | OVCAR-4 > 100 µM | NCI/ADR-RES 55.7 µM | SK-MEL-5 > 100 µM | PC-3 > 100 µM

COc1c(-c2ccc3c(c2)OCO3)oc2cc(O)cc(O)c2c1=O
inactive: DU-145 59.3 µM | OVCAR-8 45.4 µM | SR 22.6 µM | SF-268 32.6 µM | A498 21.9 µM | ACHN 27 µM | MDA-MB-231 97.7 µM | KM12 64.7 µM | OVCAR-5 > 100 µM | K562 45.1 µM | LOX IMVI 45.4 µM | SK-OV-3 19.6 µM | NCI-H23 63.4 µM | UO-31 7.19 µM | 786-0 38.4 µM | OVCAR-4 29.5 µM | NCI/ADR-RES 46 µM | SK-MEL-5 56.5 µM | PC-3 57.3 µM

COc1nc(C(Cl)(Cl)Cl)c(Cl)c(O)c1Cl
inactive: DU-145 > 100 µM | OVCAR-8 > 100 µM | SR > 100 µM | OVCAR-3 > 100 µM | A498 > 100 µM | ACHN > 100 µM | MDA-MB-231 > 100 µM | KM12 > 100 µM | OVCAR-5 > 100 µM | K562 > 100 µM | LOX IMVI > 100 µM | SK-OV-3 > 100 µM | NCI-H23 > 100 µM | UO-31 > 100 µM | 786-0 > 100 µM | OVCAR-4 > 100 µM | NCI/ADR-RES > 100 µM | SK-MEL-5 > 100 µM | PC-3 > 100 µM

C=CCn1c(-c2cc(C(C)(C)C)c(O)c(C(C)(C)C)c2)cs/c1=N\C(P(=O)(O)O)P(=O)(O)O
inactive: DU-145 > 100 µM | OVCAR-8 > 100 µM | SR > 100 µM | OVCAR-3 > 100 µM | SF-268 > 100 µM | A498 > 100 µM | ACHN > 100 µM | MDA-MB-231 35.2 µM | KM12 83 µM | OVCAR-5 > 100 µM | K562 > 100 µM | SK-OV-3 > 100 µM | NCI-H23 > 100 µM | UO-31 > 100 µM | 786-0 36.8 µM | OVCAR-4 > 100 µM | NCI/ADR-RES > 100 µM | PC-3 > 100 µM
